“Also recorded” adds a separate entry of the source.
Experiments:
CD34+ CP-CML cells = assay: Liquid culture of CD34+ CP-CML cells (fold expansion, viable cells); assay type: cell-based, human; set-up: viab (%): concentration or dose not given beside the values; conditions: for viab (%) / Fold exp: serum-free medium without cytokines; for Fold exp, mean: mean of 7 patients
Procedure: Cell culture and proliferation assays. K562 cells (2×10^5) were cultured in 96-well plates, in complete Dulbecco's Modified Eagle medium supplemented with 10% fetal calf serum (Gibco®, Life technologies) alone or with variable concentrations of pioglitazone or troglitazone. […] Eight replicates were used for each set of conditions and results were obtained after three independents experiments. CD34^+ cells from patients in CP-CML at diagnosis or umbilical cord blood were immunoselected (CD34 microBead Kit, Miltenyi Biotec) according to the manufacturer's instructions. […] Ph1^+-CD34^+ cells were cultured in serum free medium (SFM) StemSpan (StemCell Technologies) without growth factors.
Flow cytometry. […] For all experiment, cell viability was assessed using SYTOX® Blue dead cell stain (Invitrogen Life Technologies).

STAT5 = STAT5 phosphorylation (flow cytometry) and STAT5 protein (Western blot) in K562 cells; assay type: cell-based; conditions: Imatinib 1 μM
Procedure: Intracellular STAT5 phosphorylation assays. […] Cells were fixed and permeabilized using Cytofix/Cytoperm kit (BD Pharmingen) and stained with Alexa Fluor® 488-anti-phospho-STAT5 mAb (BD Phosflow) or Alexa Fluor® 488-isotype-matched control to obtain fluorescence minus comparative in each experiment. Analysis was carried on a minimal number of 50,000 events in the viable cell gate. […] (untreated cells p-STAT5 MFI-non treated cells isotype-control MFI)-(drug treated cells p-STAT5 MR-drug treated cells isotype-control MFI). Western blot analysis. For STAT5 protein analysis, K562 cells (2.5×10^5) were lysed in RIPA lysis buffer on ice. […] Proteins were transferred to Hybond N+ filters (Amersham). Membranes were probed with the following antibodies: STAT5 (sc-1656), actin (sc-8432), and goat anti-mouse IgG-HRP (sc-2005) (Santa Cruz Biotechnology Inc.). Antibody binding was detected by the enhanced chemiluminescence ECL+ (Amersham).

CP-CML LTC-ICs = assay: LTC-IC assay with limiting dilution analysis; assay type: cell-based, human
Procedure: Colony Forming Cell (CFC) and Long Term Culture—Initiating Cell (LTC-IC) assays. […] Cells were scored and collected after 14 day incubation at 37° C. and 5% CO2. After scoring, colonies were washed with PBS and kept frozen in RNAlater® (Invitrogen) for subsequent analysis. […] After five weeks with weekly change of one half medium volume, all cells were transferred in alpha-MEM based methylcellulose medium (GF H4434, Stemcell technologies) to determine the total clonogenic cell content of each LTC. LTC-IC frequencies were determined using the L-Calc software (Stemcell technologies).

[1] = Imatinib plasma levels in three CML patients; assay type: in vivo, human
STAT5B mRNA = assay: STAT5B RT-qPCR in CP-CML cells; assay type: cell-based, human; conditions: CP-CML cells after 10 days of liquid culture without cytokines; normalized to GAPDH
Source text: RNA extraction and RT-qPCR analysis.

[2] = ACTIM companion study: imatinib trough levels; assay type: in vivo, human; conditions: p=ns
CML patients [3] = assay: BCR-ABL/ABL RT-qPCR follow-up of three CML patients given pioglitazone on imatinib; assay type: in vivo, human
[4] = test system: human cord blood CD34+ cells expressing BCR-ABL; assay: CFC assay after lentivector-mediated expression of BCR-ABL in cord blood CD34+ cells; assay type: cell-based; conditions: BCR-ABL vs eGFP lentivector; drug added for 48 h prior; p<0.002
Procedure: For CFC assays, CD34^+ cells were suspended (1×10^4) in 3 ml of alpha-MEM based methylcellulose medium (GF H4434, Stemcell Technologies). Cells were scored and collected after 14 day incubation at 37° C. and 5% CO2.
An SIV GAE-SSFV-eGFP vector was used as a control.
Cells were suspended (1×10^6/ml) in StemSpan (StemCell Technologies, France) supplemented with protamine sulfate (4 μg/ml), SCF (100 ng/ml), Flt-3-L (100 ng/ml), IL-3 (20 ng/ml), and IL-6 (20 ng/ml), in a 96-well plate coated with RetroNectin® (Takara Shuzo Co., Japan). Cell suspensions were incubated for 16 hours. Lentiviral vectors were then added and cell suspensions incubated for 12 hours. Cells were washed twice before being seeded.

CML patients [5] = assay: ACTIM clinical trial: molecular response and safety; assay type: in vivo, human
Source text: BCR-ABL transcript level was monitored every 3 months during the study period. Primary objective was the proportion of patients achieving a confirmed undetectable level of BCR-ABL transcript. Secondary objectives included cumulative incidence of CMR4.5 and safety.

[6] = pioglitazone added to imatinib, 24 evaluable patients

Procedure for CP-CML CD34+ cells: CSFE assays. Fresh CD34^+-enriched cells were stained with 2 μM of 5-(and 6-) carboxyfluorescein diacetate succinimidyl diester (CFSE, Invitrogen). […] Cells were harvested at variable time points as indicated, collected in BD Trucount™ tubes for absolute count (BD Biosciences) and labeled with anti-CD45 and anti-CD34. Then, cells were diluted in 1 mL of phosphate-buffered saline (PBS, Invitrogen Life Technologies) containing 2% fetal calf serum (PAA) and stained for viability. All analyses were carried out on a BD FACS Canto2 Flow Cytometer.

SMILES: Cc1ccc(NC(=O)c2ccc(CN3CCN(C)CC3)cc2)cc1Nc1nccc(-c2cccnc2)n1 [Imatinib]
- viab (%) (CD34+ CP-CML cells; Patient 1, D 3 in culture): 0.1%
- viab (%) (CD34+ CP-CML cells; Patient 1, D 7 in culture): 0.10%
- viab (%) (CD34+ CP-CML cells; Patient 2, D 3 in culture): 31.00%
- viab (%) (CD34+ CP-CML cells; Patient 2, D 7 in culture): 29.70%
- viab (%) (CD34+ CP-CML cells; Patient 3, D 3 in culture): 4.10%
- viab (%) (CD34+ CP-CML cells; Patient 3, D 7 in culture): 5.90%
- viab (%) (CD34+ CP-CML cells; Patient 4, D 3 in culture): 86.00%
- viab (%) (CD34+ CP-CML cells; Patient 4, D 7 in culture): 54.00%
- viab (%) (CD34+ CP-CML cells; Patient 5, D 3 in culture): 54.5%
- viab (%) (CD34+ CP-CML cells; Patient 5, D 7 in culture): 56.00%
- viab (%) (CD34+ CP-CML cells; Patient 6, D 3 in culture): 85.00%
- viab (%) (CD34+ CP-CML cells; Patient 6, D 7 in culture): 73.00%
- viab (%) (CD34+ CP-CML cells; Patient 7, D 3 in culture): 84.00%
- viab (%) (CD34+ CP-CML cells; Patient 7, D 7 in culture): 66.00%
- action on STAT5 phosphorylation (STAT5): acts rapidly (minutes) by preventing STAT5 phosphorylation
- reduction of the frequency of CP-CML LTC-ICs (in words) (CP-CML LTC-ICs; p=0.067 and p=0.02): unable to reduce significantly
- viable CD34+ cells that never divided or had divided only once (CP-CML CD34+ cells; Patient 4, vs. 5% for the untreated control): 34%
- effect on cell cycle status / quiescence (CP-CML CD34+ cells; liquid culture without cytokines): induced a selection of insensitive quiescent CML cells
- plasma levels ([1]; Patient 1, imatinib 300-400 mg/day): 924 ng/mL
- plasma levels ([1]; Patient 2, imatinib 300-400 mg/day): 310 ng/mL
- plasma levels ([1]; Patient 3, imatinib 400 mg/day): 790 ng/mL
- decrease of STAT5B mRNA levels (STAT5B mRNA): 1.5 fold

SMILES: CCc1ccc(CCOc2ccc(CC3SC(=O)NC3=O)cc2)nc1 (centres unmarked) [pioglitazone]
- Fold exp (CD34+ CP-CML cells; Patient 1, D 3 in culture): 0.75 fold
- viab (%) (CD34+ CP-CML cells; Patient 1, D 3 in culture): 19.00%
- Fold exp (CD34+ CP-CML cells; Patient 1, D 7 in culture): 0.39 fold
- viab (%) (CD34+ CP-CML cells; Patient 1, D 7 in culture): 9.00%
- Fold exp (CD34+ CP-CML cells; Patient 2, D 3 in culture): 1.25 fold
- viab (%) (CD34+ CP-CML cells; Patient 2, D 3 in culture): 47.00%
- Fold exp (CD34+ CP-CML cells; Patient 2, D 7 in culture): 2.96 fold
- viab (%) (CD34+ CP-CML cells; Patient 2, D 7 in culture): 71.00%
- Fold exp (CD34+ CP-CML cells; Patient 3, D 3 in culture): 0.27 fold
- viab (%) (CD34+ CP-CML cells; Patient 3, D 3 in culture): 9.90%
- Fold exp (CD34+ CP-CML cells; Patient 3, D 7 in culture): 1.69 fold
- viab (%) (CD34+ CP-CML cells; Patient 3, D 7 in culture): 17.90%
- Fold exp (CD34+ CP-CML cells; Patient 4, D 3 in culture): 2.02 fold
- viab (%) (CD34+ CP-CML cells; Patient 4, D 3 in culture): 93.00%
- Fold exp (CD34+ CP-CML cells; Patient 4, D 7 in culture): 1.67 fold
- viab (%) (CD34+ CP-CML cells; Patient 4, D 7 in culture): 54.00%
- Fold exp (CD34+ CP-CML cells; Patient 5, D 3 in culture): 1.32 fold
- viab (%) (CD34+ CP-CML cells; Patient 5, D 3 in culture): 73.00%
- Fold exp (CD34+ CP-CML cells; Patient 5, D 7 in culture): 0.93 fold
- viab (%) (CD34+ CP-CML cells; Patient 5, D 7 in culture): 86.00%
- Fold exp (CD34+ CP-CML cells; Patient 6, D 3 in culture): 1.69 fold
- viab (%) (CD34+ CP-CML cells; Patient 6, D 3 in culture): 88.00%
- Fold exp (CD34+ CP-CML cells; Patient 6, D 7 in culture): 1.87 fold
- viab (%) (CD34+ CP-CML cells; Patient 6, D 7 in culture): 85.00%
- Fold exp (CD34+ CP-CML cells; Patient 7, D 3 in culture): 0.86 fold
- viab (%) (CD34+ CP-CML cells; Patient 7, D 3 in culture): 84.00%
- Fold exp (CD34+ CP-CML cells; Patient 7, D 7 in culture): 1.48 fold
- viab (%) (CD34+ CP-CML cells; Patient 7, D 7 in culture): 33.00%
- Fold exp, mean (CD34+ CP-CML cells; D 3 in culture): 1.17 fold
- Fold exp, mean (CD34+ CP-CML cells; D 7 in culture): 1.54 fold
- interaction between imatinib and pioglitazone in term of through level [2]: No interaction; also recorded: lack of interaction
- reduction of the frequency of CP-CML LTC-ICs (CP-CML LTC-ICs; limiting dilution analysis): 2.4 fold
- duration of CMR(Slog) (CML patients [3]; Patient 1, pioglitazone 30 mg/day added after 5 years of imatinib therapy): 56 months
- duration of CMR(Slog) (CML patients [3]; Patient 2, pioglitazone 30 mg/day added after 6 year of imatinib therapy, then withdrew): 12 months
- time without molecular relapse after stopping imatinib treatment (CML patients [3]; Patient 3): 6 months
- time to CMR(Slog) (CML patients [3]; Patient 3, pioglitazone 45 mg/day added to imatinib): 6 months
- duration of CMR(Slog) (CML patients [3]; Patient 3, pioglitazone 45 mg/day added to imatinib 400 mg/day): 28 months
- degree of reduction in colony forming cells (CFC), greater when BCR-ABL was expressed [4]: 1.9 fold
- decrease of STAT5B mRNA levels (STAT5B mRNA): 8.5 fold
- patients with a confirmed undetectable level of BCR-ABL transcript (CML patients [5]; pioglitazone 30 mg/d 2 months then 45 mg/d added to imatinib, 24 evaluable patients): 14%
- discontinuation due to adverse events (CML patients [5]; [6]): No patient discontinued due to adverse events
- main adverse events (CML patients [5]; [6]): weight gain and worsening fluid retention in 3 patients
- one year cumulative incidence of CMR4.5 (CML patients [5]; pioglitazone added to imatinib, control group 27% (p=0.02)): 57%

Reference: patent US9623015B2, “Combination of an anti-cancer agent such as a tyrosinekinase inhibitor and a STAT5 antagonist, preferably a thiazolidinedione, for eliminating hematologic cancer stem cells in vivo and for preventing hematologic cancer relapse” (Commissariat à L'Energie Atomique et aux Energies …, priority 2012, dated 2017)
